Where no end group is shown, it is not given here.

One experiment has as its target SARS-CoV-2 RBD (Severe acute respiratory syndrome coronavirus 2, UniProt P0DTC2). In kind it is binding. Particulars: maximum steady-state BLI response signal from fit.
The next experiment deals with Noro P-domain (Norovirus Hu/GII.4/Sydney/NSW0514/2012/AU, UniProt K4LM89). The experiment can be described thus: BLI analysis, steady-state. Particulars: maximum steady-state BLI response signal from fit. In kind it is binding, Norovirus GII.4.
For a further experiment, the target named is T1, AFP (Homo sapiens, UniProt P02771).
T1 construct: purchased Sino Biological Co., LTD; (Beijing)
T1 sequence (P02771 19-609): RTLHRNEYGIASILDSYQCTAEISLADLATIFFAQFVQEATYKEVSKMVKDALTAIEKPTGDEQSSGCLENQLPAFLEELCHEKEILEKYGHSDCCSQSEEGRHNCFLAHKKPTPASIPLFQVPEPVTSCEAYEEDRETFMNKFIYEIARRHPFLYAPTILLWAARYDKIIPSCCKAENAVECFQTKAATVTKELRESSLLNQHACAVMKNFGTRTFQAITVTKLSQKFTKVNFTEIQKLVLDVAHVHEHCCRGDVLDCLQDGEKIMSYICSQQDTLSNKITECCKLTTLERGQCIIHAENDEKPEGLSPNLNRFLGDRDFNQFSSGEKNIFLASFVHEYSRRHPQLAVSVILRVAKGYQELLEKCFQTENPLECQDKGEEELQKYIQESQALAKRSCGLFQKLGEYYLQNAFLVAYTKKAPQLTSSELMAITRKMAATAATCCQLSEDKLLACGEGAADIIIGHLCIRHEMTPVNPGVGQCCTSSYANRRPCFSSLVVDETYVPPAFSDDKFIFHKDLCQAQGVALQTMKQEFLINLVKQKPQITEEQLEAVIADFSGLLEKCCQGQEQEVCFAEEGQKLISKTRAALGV
The experiment can be described thus: BLI analysis, steady-state. Particulars: for Kd: BLI Octet Red96, biotinylated target on SSA sensors, peptide 3.125 to 200 nM, 25°C, kinetics buffer (10 mM PBS, 0.1% BSA, 0.05% Tween-20), steady-state fit, 1:1 model; for Rmax: maximum steady-state BLI response signal from fit. In kind it is binding. (In general: In BLI a coated tip is dipped into the sample, and binding shifts an interference pattern.)

As for CPPPAPQFPFPWPPW [Pep-2458], the Rmax at SARS-CoV-2 RBD was 0.2149±0.0080 nm. On the same count and under the same terms, to CPPPFPGRPPPWPPF [Pep-1927] belongs 0.1296±0.0076 nm; to CPPPPPYYKPPGHPP [Pep-6626], 0.1940±0.0063 nm.

The sequence FFGPPPWPPPPPPWY [Pep-3076] returned an Rmax on Noro P-domain of 0.4267±0.0208 nm. Still for that read-out and setting: to FPPPPPHPWPPPPWA [Pep-21] belongs 0.7092±0.0344 nm. Still for that read-out and setting: to FPPPPWWDWPPPPWW [Pep-595] belongs 0.4957±0.0130 nm. On AFP, PIWWYHAEKPEHWPI [Pep-5890] came in with a Kd of 74.8 ± 11 nM and an Rmax of 0.2242±0.0144 nm. Consider WWALEHYPPPYMQIW [Pep-6973], for which, on AFP, the dissociation constant Kd was 69.3 ± 14.4 nM and the Rmax worked out at 0.2449±0.0216 nm. The corresponding values for WWWWWPHHDWKLVWC [Pep-7937] are 40.6 ± 7.31 nM and 0.0945±0.0061 nm.

As a reminder, the Kd is the free concentration of one partner at which half of the binding sites on the other are occupied at equilibrium, for simple one-to-one binding. The low end stands for higher affinity, the high end for lower affinity.

Values taken from PMC11613273, “High-Affinity Peptides for Target Protein Screened in Ultralarge Virtual Libraries” (ACS Central Science, 2024).
